These results are taken from ChEMBL document CHEMBL1156960, “First synthesis of separable isomeric testosterone dimers showing differential activities on prostate cancer cells” (Bioorg Med Chem Lett, 2010).

The subject of test [1] is LNCaP. Nature of the test: Cytotoxicity against human androgen receptor positive LNCAP cells after 72 hrs by MTT assay. It counts as functional, cell-based. In general terms: Tetrazolium dyes change colour on reduction, which living cells bring about.
In test [2] the test system is PC-3. Nature of the test: Cytotoxicity against human androgen receptor negative PC3 cells after 72 hrs by MTT assay. It counts as functional, cell-based. As to conditions: PC-3, 72 h.

The IC50 is the midpoint of a concentration-inhibition curve. Low values mean greater potency, high ones weaker potency. In the case of `CC(=O)O[C@]1(C(C)=O)CC[C@H]2[C@@H]3C=C(Cl)C4=CC(=O)[C@@H]5C[C@@H]5[C@]4(C)[C@H]3CC[C@@]21C` [CYPROTERONE ACETATE], the IC50 in test [1] worked out at 43 µM; in test [2], 32.3 µM. With `C[C@]12CC[C@H]3[C@@H]([C@@H](C/C=C\C[C@H]4CC5=CC(=O)CC[C@]5(C)[C@H]5CC[C@]6(C)[C@@H](O)CC[C@H]6[C@H]45)CC4=CC(=O)CC[C@@]43C)[C@@H]1CC[C@@H]2O`, the half-maximal inhibitory concentration (IC50) in test [1] was 30.3 µM; in test [2] it was 24.7 µM. In turn, `C[C@]12CC[C@H]3[C@@H]([C@@H](C/C=C/C[C@H]4CC5=CC(=O)CC[C@]5(C)[C@H]5CC[C@]6(C)[C@@H](O)CC[C@H]6[C@H]45)CC4=CC(=O)CC[C@@]43C)[C@@H]1CC[C@@H]2O` showed an IC50 in test [2] of 35.7 µM.
